For one assay, the target named is T1, Hyg17 (Streptomyces leeuwenhoekii, UniProt A0A0F7VN41).
T1 construct: cloned NdeI/XhoI in pTip-QC1, expressed in Rhodococcus jostii RHA1, Ni-NTA and size exclusion; primers encode N-terminus MTVAVVG and C-terminus SVPVAP before LE (XhoI)
Description: NADH formation, absorbance at […] nm, initial rates […]-5 min. It counts as biochemical. The settings on record: 100 mM CAPS, 50 mM NaCl, pH 10.5, 25 °C.

For the next assay, the target named is T2, BsIDH (Bacillus subtilis, UniProt P26935).
T2 construct: gene iolG; codon-optimised synthetic gene in pET28a, expressed in E. coli BL21 star (DE3), Ni-NTA and size exclusion
T2 sequence (P26935 whole entry): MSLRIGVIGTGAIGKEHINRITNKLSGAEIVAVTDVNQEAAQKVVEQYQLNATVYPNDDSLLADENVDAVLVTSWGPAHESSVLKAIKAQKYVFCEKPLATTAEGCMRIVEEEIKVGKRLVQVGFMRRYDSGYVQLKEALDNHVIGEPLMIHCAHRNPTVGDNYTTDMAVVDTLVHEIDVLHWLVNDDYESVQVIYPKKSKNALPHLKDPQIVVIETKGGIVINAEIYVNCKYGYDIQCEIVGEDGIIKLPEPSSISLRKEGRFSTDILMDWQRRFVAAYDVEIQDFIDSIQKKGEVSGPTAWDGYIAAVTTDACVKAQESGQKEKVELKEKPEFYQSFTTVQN
Description: thin-layer chromatography of ketone product. It is filed as biochemical. The settings on record: 10 mM myo-inositol, 10 mM NAD+, 100 mM CAPS, 50 mM NaCl, pH 10.5.

The structures appear in SMILES notation.

T1 sequence (A0A0F7VN41 whole entry): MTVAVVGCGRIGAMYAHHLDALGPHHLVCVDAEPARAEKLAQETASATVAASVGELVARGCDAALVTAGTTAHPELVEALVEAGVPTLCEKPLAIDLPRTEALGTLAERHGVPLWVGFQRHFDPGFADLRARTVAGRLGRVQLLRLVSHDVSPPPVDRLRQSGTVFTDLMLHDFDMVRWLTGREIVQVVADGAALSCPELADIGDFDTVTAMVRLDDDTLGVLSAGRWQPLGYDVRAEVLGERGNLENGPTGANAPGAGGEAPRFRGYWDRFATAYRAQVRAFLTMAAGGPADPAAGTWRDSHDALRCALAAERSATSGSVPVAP

Take `O[C@H]1[C@H](O)[C@@H](O)[C@H](O)[C@@H](O)[C@@H]1O` [scyllo-inositol]: the Km (as a rule, the substrate concentration at which the rate is half of its maximum) at Hyg17 (10 mM NAD+) worked out at 20.3 ± 3.3 mM.

For the compound `O[C@H]1[C@H](O)[C@@H](O)[C@H](O)[C@@H](O)[C@H]1O` [myo-inositol], at BsIDH, the “thin-layer chromatography of ketone product” value is listed as “We found that both enzymes generated a ketone product with identical retention factors”. Besides, the Km at Hyg17 (10 mM NAD+) came out at 9 ± 1.1 mM.

Take `NC(=O)c1ccc[n+]([C@@H]2O[C@H](COP(=O)(O)OP(=O)(O)OC[C@H]3O[C@@H](n4cnc5c(N)ncnc54)[C@H](O)[C@@H]3O)[C@@H](O)[C@H]2O)c1` [NAD^+]: at Hyg17 (10 mM myo-inositol), the Km came out at 4.2 ± 0.49 mM.
